{
  "source": "patent US11160790B2",
  "about": "“Method of inhibiting Cryptococcus growth using eltrombopag” (priority 2019, dated 2021)",
  "key": {"C. neoformans H99 [1]": {"tested_on": "C. neoformans H99", "assay": "Capsule size assay (India ink)", "format": "cell-based, Cryptococcus neoformans", "conditions": "0.06 mg/L, 37° C., 48 hours, versus no eltrombopag treatment", "method": "(§1) Cryptococcus and Candida species were cultured in yeast extract-peptone-dextrose (YPD) medium (containing 1% yeast extract, 2% peptone, 2% glucose, and optionally 2% agar for preparation of an agar plate). Aspergillus, Fusarium, and Trichophyton species were cultured on potato dextrose agar (PDA) plate (containing 2% potato infusion, […], and 1.5% agar). A microdilution assay was performed to determine minimum inhibitory concentration (MIC), minimum fungicidal concentration (MFC), and fractional inhibitory concentration (FIC) index (FICI) using RPMI 1640 medium buffered with MOPS. Minimal medium (containing 15 mM glucose, 10 mM magnesium sulfate, 29.4 mM potassium dihydrogen phosphate, 13 mM glycine, and 3 μM thiamine hydrochloride; pH 5.5) was used for capsule size assay and melanization assay.\n(§2) Cryptococcus capsule, the structure attached to the outer surface of the cell wall and mainly composed of polysaccharides, can increase the resistance of Cryptococcus to host immune response (such as phagocytosis by macrophages) and harsh conditions (such as extreme acidity or alkalinity, high CO2 levels, or iron deprivation). To test whether eltrombopag affects capsule formation in Cryptococcus, C. neoformans H99 and C. deuterogattii R265 cells were cultured overnight in YPD media at 30° C. […] Statistical significance for the data sets was determined using a two-tailed t test."}, "C. neoformans H99 [2]": {"tested_on": "C. neoformans H99", "assay": "XTT-reduction assay of biofilm metabolic activity", "format": "cell-based, Cryptococcus neoformans", "method": "Cryptococcus biofilms, which are composed of Cryptococcus cells and extracellular matrix, enhance the tolerance of Cryptococcus to antifungal agents (such as amphotericin B) and host defense mechanisms. To assess whether eltrombopag impacts biofilm formation in Cryptococcus, an XTT-reduction assay was used to measure the metabolic activity of C. neoformans cells treated with eltrombopag at 37° C. Briefly, C. neoformans […] cells were cultured in YPD medium at 30° C. overnight. The cells were washed twice with phosphate buffered saline (PBS) and resuspended in RPMI 1640 medium with or without eltrombopag at the indicated concentrations. The cell suspension (0.0005 OD600/mL) was added to a 96-well polystyrene plate and incubated at 37° C. for 24 or 48 hours. […] After incubation, the cells were washed three times with PBS and subjected to XTT reduction assay to quantify formazan formation by measuring the light absorbance at 492 nm. The experiments were performed in triplicate, and the results were presented as mean±standard deviation. Statistical significance for the data sets was determined using a two-tailed t test."}, "C. neoformans H99 [3]": {"tested_on": "C. neoformans H99", "assay": "Growth kinetics in RPMI 1640 (cell density)", "format": "cell-based, Cryptococcus neoformans", "method": "To study the inhibitory effects of eltrombopag on the growth of Cryptococcus, C. neoformans H99 cells were cultured overnight at 30° C. and then washed twice with double-distilled water. The cells were diluted to 0.0005 OD600/mL with RPMI 1640 medium, and 5 mL of the cell suspension was treated with eltrombopag at 0.5, 0.25, 0.125, 0.06, or 0 mg/L and incubated at 37° C. with shaking at 150 rpm for 4 days. The cell density of the suspensions was measured every 12 hours with a SpectraMax190 microplate reader (Molecular Devices), and growth curves were plotted using Prism 5.03 (GraphPad Software, San Diego, Calif., USA). The experiments were performed in triplicate, and the results were presented as mean±standard deviation."}, "C. deuterogattii 8265": {"tested_on": "C. deuterogattii 8265", "assay": "Disk diffusion susceptibility assay", "format": "cell-based, Cryptococcus deuterogattii", "conditions": "10 μg per disk; 25° C., 30° C. or 37° C., 48 hours", "method": "A disk diffusion susceptibility assay was performed to further investigate the fungistatic activity of eltrombopag at different temperatures. Briefly, C. neoformans […] or C. deuterogattii 8265 was cultured overnight at 30° C., and 100 μL of the culture (at an OD600 of about 0.1) was spread on RPMI 1640 agar plates. Paper disks (with a diameter of 6 mm) were then placed on these agar plates, and either 10 μg eltrombopag (dissolved in 5 μL DMSO) or 5 μL DMSO (control) was added to each disk. The agar plates were incubated at 25° C., 30° C., or 37° C. for 48 hours and photographed."}, "C. neoformans H99 [4]": {"tested_on": "C. neoformans H99", "assay": "Melanization assay (L-DOPA)", "format": "cell-based, Cryptococcus neoformans", "conditions": "0.03 mg/L (¼ MIC) or 0.06 mg/L (½ MIC); 1 mM L-DOPA, 30° C.", "method": "as §1\nMelanin protects Cryptococcus from toxic free radicals produced by the host defense system, and thus melanin production is important for the pathogenicity of Cryptococcus. To study whether eltrombopag has an effect on melanin production in Cryptococcus, 5×10^4 C. neoformans H99 cells were cultured in minimal medium (abbreviated as MM) with or without 1 mM L-DOPA in the presence or absence of eltrombopag. The flasks containing the cultures were wrapped in foil to prevent L-DOPA auto-polymerization. […]"}, "most Candida species": {"tested_on": "most Candida species", "assay": "Microdilution assay, summary for Candida species", "format": "cell-based", "method": "as §1, with “Minimal medium (containing 15 mM glucose, 10 mM magnesium sulfate, 29.4 mM potassium dihydrogen phosphate, 13 mM glycine, and 3 μM thiamine hydrochloride; pH 5.5) was used for capsule size assay and melanization assay.” left out\nTo investigate the inhibitory effects of eltrombopag on the growth of fungi, microdilution assays (based on the CLSI standards M27-A3 and M38-A2) were performed with multiple pathogenic yeasts and filamentous fungi including Cryptococcus, Candida, Aspergillus, Fusarium, and Trichophyton (TABLE 1). […] Thereafter, 3 μL of the fungal culture from each well of the 96-well plates was spotted onto eltrombopag-free YPD (for yeasts) or PDA (for filamentous fungi) agar plates, which were then incubated at 35° C. for 48 hours to examine colony formation Minimum fungicidal concentration (MFC) was determined to be the lowest drug concentration at which no colonies formed. […]"}, "C. deuterogattii R265": {"tested_on": "C. deuterogattii R265", "assay": "Capsule size assay (India ink)", "format": "cell-based, Cryptococcus deuterogattii", "conditions": "0.06 mg/L, 37° C., 48 hours, versus no eltrombopag treatment", "method": "as §1, §2"}},
  "data": [
    {"smiles": "CC1=NN(c2ccc(C)c(C)c2)C(=O)/C1=N\\Nc1cccc(-c2cccc(C(=O)O)c2)c1O", "note": "[eltrombopag]", "values": [
      {"measurement": "capsule size", "setting": "C. neoformans H99 [1]", "value": "capsule size significantly reduced"},
      {"measurement": "reduction of metabolic activity compared to the control group", "setting": "C. neoformans H99 [2]; 0.125 mg/L, 37° C., 24 hours", "value": "more than 70%"},
      {"measurement": "biofilm formation (metabolic activity, OD492)", "setting": "C. neoformans H99 [2]; two-fold serially diluted from 4 to 0.015 mg/L, 48 hours", "value": "inhibited the formation of C. neoformans biofilms in a dose-dependent manner"},
      {"measurement": "growth kinetics (cell density)", "setting": "C. neoformans H99 [3]; 0.06 mg/L", "value": "did not affect the growth kinetics"},
      {"measurement": "growth kinetics (cell density)", "setting": "C. neoformans H99 [3]; 0.25 mg/L or 0.5 mg/L, 37° C., 96 hours", "value": "static growth of C. neoformans was maintained"},
      {"measurement": "growth kinetics (cell density)", "setting": "C. neoformans H99 [3]; 0.5, 0.25, 0.125, 0.06 mg/L, 37° C., 4 days", "value": "inhibited the growth of C. neoformans in a dose-dependent manner"},
      {"measurement": "inhibition zones", "setting": "C. deuterogattii 8265", "value": "significantly larger inhibition zones were observed at 37 °C"},
      {"measurement": "melanin production", "setting": "C. neoformans H99 [4]", "value": "melanin production in C. neoformans reduced"},
      {"measurement": "MIC", "setting": "most Candida species", "value": "≥ 64", "unit": "mg/1"},
      {"measurement": "capsule size", "setting": "C. deuterogattii R265", "value": "capsule size significantly reduced"}
    ]}
  ]
}
